What all share (type): functional
For experiment [1], the target named is Cyclin-dependent kinase 8 (Homo sapiens, UniProt P49336). Put plainly: Navigating the Kinome. Panel member name: CDK8.
For experiment [2], the target named is T1, Serine/threonine-protein kinase Chk1 (Homo sapiens, UniProt O14757).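 Also: measured as one member of a kinome-wide kinase profiling panel.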
T1 sequence (O14757 whole entry): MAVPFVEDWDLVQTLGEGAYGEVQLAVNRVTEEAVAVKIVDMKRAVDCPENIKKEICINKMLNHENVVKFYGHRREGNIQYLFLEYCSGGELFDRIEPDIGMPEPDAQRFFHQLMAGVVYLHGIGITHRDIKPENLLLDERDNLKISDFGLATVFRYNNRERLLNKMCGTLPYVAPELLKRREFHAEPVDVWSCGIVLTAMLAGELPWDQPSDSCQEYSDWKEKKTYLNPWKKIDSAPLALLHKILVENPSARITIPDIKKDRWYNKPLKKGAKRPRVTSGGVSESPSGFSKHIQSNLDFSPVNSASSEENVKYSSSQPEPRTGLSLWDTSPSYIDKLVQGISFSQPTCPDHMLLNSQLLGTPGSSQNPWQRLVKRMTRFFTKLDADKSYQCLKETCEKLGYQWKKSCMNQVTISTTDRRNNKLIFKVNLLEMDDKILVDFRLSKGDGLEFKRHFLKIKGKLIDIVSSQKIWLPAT

The target in the next experiment is Focal adhesion kinase 1 (Homo sapiens, UniProt Q05397).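 Also: measured as one member of a kinome panel.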
Chain of Focal adhesion kinase 1 (Q05397 whole entry): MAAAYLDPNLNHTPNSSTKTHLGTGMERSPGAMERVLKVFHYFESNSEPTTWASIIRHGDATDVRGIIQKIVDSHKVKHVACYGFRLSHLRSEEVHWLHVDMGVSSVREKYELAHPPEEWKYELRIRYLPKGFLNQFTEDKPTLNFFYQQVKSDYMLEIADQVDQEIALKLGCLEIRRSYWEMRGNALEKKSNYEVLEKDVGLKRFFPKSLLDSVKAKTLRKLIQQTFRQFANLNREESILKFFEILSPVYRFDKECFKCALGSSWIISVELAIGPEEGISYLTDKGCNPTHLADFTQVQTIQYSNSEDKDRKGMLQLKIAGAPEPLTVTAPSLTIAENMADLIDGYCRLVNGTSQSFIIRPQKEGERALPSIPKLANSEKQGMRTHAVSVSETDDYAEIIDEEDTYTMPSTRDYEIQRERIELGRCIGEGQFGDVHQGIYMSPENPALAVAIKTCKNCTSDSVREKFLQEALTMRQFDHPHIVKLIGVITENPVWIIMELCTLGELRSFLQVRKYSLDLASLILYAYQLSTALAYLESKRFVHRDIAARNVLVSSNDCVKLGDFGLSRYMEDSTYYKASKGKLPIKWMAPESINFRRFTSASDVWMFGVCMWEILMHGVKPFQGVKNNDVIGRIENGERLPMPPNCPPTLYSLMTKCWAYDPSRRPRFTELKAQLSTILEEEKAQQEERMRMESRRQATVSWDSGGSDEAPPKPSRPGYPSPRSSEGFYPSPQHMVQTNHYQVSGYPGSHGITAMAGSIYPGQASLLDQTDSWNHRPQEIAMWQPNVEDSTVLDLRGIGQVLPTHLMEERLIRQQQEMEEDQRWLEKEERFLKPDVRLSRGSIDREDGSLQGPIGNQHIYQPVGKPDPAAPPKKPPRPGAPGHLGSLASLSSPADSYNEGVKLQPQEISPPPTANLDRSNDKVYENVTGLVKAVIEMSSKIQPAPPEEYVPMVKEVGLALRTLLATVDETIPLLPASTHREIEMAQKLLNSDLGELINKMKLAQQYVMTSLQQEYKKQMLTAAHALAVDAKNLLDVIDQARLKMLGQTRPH
For the next experiment, the target named is Activated CDC42 kinase 1 (Homo sapiens, UniProt Q07912). Put plainly: Navigating the Kinome. Panel member name: ACK1.
Chain of Activated CDC42 kinase 1 (Q07912 whole entry): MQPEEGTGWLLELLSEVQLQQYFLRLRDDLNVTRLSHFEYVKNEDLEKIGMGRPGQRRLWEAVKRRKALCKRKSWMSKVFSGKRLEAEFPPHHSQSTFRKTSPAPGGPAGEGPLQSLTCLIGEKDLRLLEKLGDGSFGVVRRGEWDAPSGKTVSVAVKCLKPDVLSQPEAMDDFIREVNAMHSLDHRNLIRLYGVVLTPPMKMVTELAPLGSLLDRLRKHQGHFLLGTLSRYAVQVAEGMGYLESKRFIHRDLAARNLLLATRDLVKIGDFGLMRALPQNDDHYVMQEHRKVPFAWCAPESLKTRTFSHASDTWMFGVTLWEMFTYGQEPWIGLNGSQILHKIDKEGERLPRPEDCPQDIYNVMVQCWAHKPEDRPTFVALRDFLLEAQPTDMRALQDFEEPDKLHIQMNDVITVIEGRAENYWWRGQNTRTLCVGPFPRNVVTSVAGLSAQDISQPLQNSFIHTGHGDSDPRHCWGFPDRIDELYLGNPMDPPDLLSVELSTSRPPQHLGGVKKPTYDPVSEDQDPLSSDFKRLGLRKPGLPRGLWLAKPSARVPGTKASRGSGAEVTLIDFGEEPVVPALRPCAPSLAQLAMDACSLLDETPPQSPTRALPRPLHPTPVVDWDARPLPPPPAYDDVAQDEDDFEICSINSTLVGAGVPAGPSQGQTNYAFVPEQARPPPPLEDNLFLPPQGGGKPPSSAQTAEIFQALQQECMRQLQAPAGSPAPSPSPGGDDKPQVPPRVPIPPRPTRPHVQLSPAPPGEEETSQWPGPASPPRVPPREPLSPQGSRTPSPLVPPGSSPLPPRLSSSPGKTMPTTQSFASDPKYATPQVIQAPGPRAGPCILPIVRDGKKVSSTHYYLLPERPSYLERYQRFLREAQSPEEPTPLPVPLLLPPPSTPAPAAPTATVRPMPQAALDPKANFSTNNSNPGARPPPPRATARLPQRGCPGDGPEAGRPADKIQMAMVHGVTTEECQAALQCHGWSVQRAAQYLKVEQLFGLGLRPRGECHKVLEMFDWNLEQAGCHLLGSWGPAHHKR
Experiment [3] has as its target Vascular endothelial growth factor receptor 1 (Homo sapiens, UniProt P17948).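 Also: measured within a kinome-wide profiling panel, FLT1 as the panel member.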
The target in experiment [4] is T2, Tyrosine-protein kinase JAK3 (Homo sapiens, UniProt P52333).
T2 sequence (P52333 whole entry): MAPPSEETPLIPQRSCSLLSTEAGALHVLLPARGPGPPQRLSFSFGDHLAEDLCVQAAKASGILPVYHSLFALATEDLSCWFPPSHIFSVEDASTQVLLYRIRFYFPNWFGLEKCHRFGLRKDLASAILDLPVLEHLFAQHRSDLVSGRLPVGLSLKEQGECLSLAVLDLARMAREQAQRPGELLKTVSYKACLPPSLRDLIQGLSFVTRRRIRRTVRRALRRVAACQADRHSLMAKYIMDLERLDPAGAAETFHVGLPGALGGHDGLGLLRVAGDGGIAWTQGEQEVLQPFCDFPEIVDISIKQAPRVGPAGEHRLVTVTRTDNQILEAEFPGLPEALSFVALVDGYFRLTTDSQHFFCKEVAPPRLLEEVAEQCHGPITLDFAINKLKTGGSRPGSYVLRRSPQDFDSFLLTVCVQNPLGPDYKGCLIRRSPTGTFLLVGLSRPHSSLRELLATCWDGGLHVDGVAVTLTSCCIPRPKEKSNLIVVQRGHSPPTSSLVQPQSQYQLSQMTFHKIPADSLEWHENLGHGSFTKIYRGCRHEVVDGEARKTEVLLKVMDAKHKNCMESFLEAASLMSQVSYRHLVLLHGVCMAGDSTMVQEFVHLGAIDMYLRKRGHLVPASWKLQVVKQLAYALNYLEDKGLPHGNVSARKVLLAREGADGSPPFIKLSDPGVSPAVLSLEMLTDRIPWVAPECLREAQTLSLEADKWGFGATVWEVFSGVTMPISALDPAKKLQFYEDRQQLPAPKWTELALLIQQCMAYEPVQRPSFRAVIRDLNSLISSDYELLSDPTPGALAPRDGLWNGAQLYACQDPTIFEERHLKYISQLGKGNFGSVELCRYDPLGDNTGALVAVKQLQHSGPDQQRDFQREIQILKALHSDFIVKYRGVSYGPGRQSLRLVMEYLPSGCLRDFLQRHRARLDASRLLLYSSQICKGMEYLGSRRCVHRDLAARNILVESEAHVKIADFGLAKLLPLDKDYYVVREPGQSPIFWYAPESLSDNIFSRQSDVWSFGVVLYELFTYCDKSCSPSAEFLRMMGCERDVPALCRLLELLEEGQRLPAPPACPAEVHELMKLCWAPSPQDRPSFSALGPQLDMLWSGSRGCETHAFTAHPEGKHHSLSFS

In experiment [5] the target is T3, Tyrosine-protein kinase receptor TYRO3 (Homo sapiens, UniProt Q06418).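 Also: TYRO3 value obtained as one member of a kinome-wide profiling panel.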
T3 sequence (Q06418 whole entry): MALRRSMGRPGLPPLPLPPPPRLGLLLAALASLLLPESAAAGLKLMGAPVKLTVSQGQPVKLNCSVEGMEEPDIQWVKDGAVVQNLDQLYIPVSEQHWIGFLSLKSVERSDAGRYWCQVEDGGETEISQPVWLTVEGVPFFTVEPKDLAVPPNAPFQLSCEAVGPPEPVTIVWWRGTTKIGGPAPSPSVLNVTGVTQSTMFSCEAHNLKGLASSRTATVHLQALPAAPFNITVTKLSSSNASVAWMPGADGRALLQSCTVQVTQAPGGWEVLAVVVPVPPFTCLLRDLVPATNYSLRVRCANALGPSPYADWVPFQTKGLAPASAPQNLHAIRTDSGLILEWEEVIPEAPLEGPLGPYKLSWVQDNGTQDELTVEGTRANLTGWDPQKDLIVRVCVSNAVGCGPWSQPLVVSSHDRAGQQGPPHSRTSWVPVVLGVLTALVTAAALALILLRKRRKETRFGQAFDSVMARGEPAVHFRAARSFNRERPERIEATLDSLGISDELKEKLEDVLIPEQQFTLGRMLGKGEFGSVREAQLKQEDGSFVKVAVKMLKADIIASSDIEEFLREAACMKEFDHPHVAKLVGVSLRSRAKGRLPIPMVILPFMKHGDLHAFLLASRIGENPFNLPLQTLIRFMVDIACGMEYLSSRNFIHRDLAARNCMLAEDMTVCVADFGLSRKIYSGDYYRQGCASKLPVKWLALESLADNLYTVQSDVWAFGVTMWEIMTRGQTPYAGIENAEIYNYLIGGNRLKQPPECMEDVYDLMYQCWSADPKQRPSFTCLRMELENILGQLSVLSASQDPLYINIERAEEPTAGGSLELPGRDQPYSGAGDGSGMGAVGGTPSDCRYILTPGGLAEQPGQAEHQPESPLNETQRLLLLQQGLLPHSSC

The target in experiment [6] is Dual specificity tyrosine-phosphorylation-regulated kinase 1B (Homo sapiens, UniProt Q9Y463). Put plainly: Navigating the Kinome. Panel member name: DYRK1B.
Chain of Dual specificity tyrosine-phosphorylation-regulated kinase 1B (Q9Y463 whole entry): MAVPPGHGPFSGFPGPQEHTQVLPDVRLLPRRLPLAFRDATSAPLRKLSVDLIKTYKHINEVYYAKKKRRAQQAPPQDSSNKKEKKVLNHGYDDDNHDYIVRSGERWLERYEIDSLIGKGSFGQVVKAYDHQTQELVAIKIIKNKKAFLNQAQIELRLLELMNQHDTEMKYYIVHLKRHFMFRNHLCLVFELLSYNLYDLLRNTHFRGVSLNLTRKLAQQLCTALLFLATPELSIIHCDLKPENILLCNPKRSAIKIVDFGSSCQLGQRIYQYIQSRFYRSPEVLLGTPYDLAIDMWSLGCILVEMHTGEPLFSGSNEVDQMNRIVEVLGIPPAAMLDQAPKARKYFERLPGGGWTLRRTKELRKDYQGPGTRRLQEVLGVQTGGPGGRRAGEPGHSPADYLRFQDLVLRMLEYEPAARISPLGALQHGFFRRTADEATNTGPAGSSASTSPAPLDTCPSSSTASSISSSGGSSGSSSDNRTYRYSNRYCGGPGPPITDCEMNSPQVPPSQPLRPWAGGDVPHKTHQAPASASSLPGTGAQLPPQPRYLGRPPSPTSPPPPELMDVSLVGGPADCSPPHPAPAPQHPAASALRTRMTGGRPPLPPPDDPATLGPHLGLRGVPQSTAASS
Experiment [7] concerns the target Serine/threonine-protein kinase PAK 4 (Homo sapiens, UniProt O96013).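 Also: value obtained within a kinome profiling panel in which PAK4 was one of the panel members.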
The target in experiment [8] is High affinity nerve growth factor receptor (Homo sapiens, UniProt P04629).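 Also: NTRK1 tested as one member of a kinome-wide profiling panel.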
Chain of High affinity nerve growth factor receptor (P04629 whole entry): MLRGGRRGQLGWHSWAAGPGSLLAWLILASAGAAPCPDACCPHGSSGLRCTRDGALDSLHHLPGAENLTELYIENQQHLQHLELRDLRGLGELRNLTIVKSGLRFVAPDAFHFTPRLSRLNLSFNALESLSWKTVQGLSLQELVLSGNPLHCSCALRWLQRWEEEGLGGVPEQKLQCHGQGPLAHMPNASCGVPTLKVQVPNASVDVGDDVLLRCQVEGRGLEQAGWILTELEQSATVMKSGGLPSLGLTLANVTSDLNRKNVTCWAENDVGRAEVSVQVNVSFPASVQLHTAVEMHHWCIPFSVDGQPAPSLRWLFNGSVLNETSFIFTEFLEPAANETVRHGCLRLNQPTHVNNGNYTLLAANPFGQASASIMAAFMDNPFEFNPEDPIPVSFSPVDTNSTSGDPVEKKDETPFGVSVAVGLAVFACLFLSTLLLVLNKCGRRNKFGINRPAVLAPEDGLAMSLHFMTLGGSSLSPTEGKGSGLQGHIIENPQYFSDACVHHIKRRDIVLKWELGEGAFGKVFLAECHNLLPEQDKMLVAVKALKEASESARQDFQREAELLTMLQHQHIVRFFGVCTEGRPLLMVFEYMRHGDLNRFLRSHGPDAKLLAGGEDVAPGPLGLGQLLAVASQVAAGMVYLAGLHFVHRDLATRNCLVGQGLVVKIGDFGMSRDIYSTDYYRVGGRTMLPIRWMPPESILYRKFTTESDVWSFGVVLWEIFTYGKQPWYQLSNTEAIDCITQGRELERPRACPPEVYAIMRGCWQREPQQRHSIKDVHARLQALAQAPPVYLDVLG

Active and inactive are the calls of the source. Where only a bound is given, the exact number is not on record here.

Chain of Vascular endothelial growth factor receptor 1 (P17948 whole entry): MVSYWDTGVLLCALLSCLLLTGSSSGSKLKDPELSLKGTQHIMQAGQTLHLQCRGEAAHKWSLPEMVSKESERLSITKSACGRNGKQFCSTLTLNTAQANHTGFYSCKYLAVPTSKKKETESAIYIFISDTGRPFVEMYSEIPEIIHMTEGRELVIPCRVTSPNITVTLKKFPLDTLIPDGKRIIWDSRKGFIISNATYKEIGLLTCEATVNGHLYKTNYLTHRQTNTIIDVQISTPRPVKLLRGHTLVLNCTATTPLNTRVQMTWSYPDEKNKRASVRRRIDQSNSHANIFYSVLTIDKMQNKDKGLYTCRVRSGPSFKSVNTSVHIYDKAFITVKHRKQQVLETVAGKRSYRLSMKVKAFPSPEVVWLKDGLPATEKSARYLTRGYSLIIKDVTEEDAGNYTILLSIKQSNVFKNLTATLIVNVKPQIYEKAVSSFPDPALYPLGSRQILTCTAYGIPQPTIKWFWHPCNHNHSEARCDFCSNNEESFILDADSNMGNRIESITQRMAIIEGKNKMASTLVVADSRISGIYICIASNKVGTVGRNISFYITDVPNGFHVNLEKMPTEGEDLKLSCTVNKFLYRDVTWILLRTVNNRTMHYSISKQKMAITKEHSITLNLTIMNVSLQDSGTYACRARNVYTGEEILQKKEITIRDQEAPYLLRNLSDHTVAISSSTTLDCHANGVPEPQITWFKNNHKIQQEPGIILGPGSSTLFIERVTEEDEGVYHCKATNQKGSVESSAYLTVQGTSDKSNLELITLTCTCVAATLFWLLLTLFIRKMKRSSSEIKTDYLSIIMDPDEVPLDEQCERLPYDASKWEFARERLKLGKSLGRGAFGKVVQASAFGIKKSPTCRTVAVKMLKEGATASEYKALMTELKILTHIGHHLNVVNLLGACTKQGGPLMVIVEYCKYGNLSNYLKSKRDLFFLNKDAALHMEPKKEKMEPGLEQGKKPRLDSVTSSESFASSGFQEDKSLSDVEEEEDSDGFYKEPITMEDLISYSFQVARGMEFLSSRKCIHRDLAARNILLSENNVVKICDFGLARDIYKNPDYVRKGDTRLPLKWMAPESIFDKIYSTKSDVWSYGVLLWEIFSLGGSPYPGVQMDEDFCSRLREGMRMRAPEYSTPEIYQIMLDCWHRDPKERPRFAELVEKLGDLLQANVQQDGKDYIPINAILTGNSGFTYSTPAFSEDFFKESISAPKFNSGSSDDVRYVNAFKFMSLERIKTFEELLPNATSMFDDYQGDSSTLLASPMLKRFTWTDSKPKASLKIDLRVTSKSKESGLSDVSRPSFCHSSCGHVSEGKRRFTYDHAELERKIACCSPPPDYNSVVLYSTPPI

As usually defined, the Ki is the dissociation constant of the complex between target and ligand, obtained from inhibition or displacement. Regarding `Cc1ccc(C)c(NC(=O)c2cc(-c3ccco3)nc3ccccc23)c1`, the Ki is 1 µM (active) in [1]; 316 nM (active) in [2]; 3.16 µM (active) at Focal adhesion kinase 1; > 3.98 µM (inactive) at Activated CDC42 kinase 1; 3.16 µM (active) in [3]; > 5.01 µM (inactive) in experiment [4]. Also, the Ki in experiment [5] was 0.316 µM (active); in experiment [6], 1000 nM (active); in [7], 3.98 µM (active); in [8] it was 1 µM (active).

In the case of `COc1ccc(C2=NNc3cccc4c(OC)ccc2c34)cc1OC`, the Ki in experiment [1] was > 3.98 µM (inactive); in [2] it was 31.6 nM (active); at Focal adhesion kinase 1, 0.794 µM (active); at Activated CDC42 kinase 1, 1.26 µM (active); in experiment [3], 0.316 µM (active); in experiment [4] it was 0.251 µM (active). For the same compound, the Ki in experiment [5] was 1 µM (active); in [6] it was 316 nM (active); in experiment [7], 2 µM (active); in experiment [8], > 3.16 µM (inactive).

In the case of `CN1CCC(c2c(O)cc(O)c3c(=O)cc(-c4ccccc4Cl)oc23)C(O)C1` (stereo not drawn), the Ki was > 6310 nM (inactive) in experiment [2]; > 3.98 µM (inactive) on Focal adhesion kinase 1; > 3.98 µM (inactive) on Activated CDC42 kinase 1; > 2 µM (inactive) in [3]; > 3.98 µM (inactive) in experiment [4]; > 2.51 µM (inactive) in [5]. In addition, the values for the Ki in [6] and in experiment [8] were 126 nM (active) and > 2.51 µM (inactive), respectively.
